The test system of data set [1] is HCT116 cells. Description: Cytotoxicity assay (WST-1 cell viability). Type of data set: cell-based, human. Conditions: for cytotoxicity: HCT116 without GSH depletion; for IC50: Homo sapiens. In general terms: Tetrazolium dyes change colour on reduction, which living cells bring about.
Description: Cell viability following drug treatments was assessed using WST-1 cell proliferation assay (Roche) Briefly, cells were plated into 96-well plates with 8,000 (HCT116) or 20,000 (MDA-MB-453) cells per well and allowed to attach overnight. Cells were then preincubated for 5 h in the presence or absence of 1 mM BSO. […] After 3 h of incubation at 37° C., the amount of formazan dye was quantified by measuring the optical density at 450 nm with a scanning multiwell spectrophotometer (PerkinElmer).
Cell viability following drug treatments was assessed using WST-1 cell proliferation assay (Roche). Briefly, cells were plated into 96-well plates with 8,000 (HCT116) or 20,000 (MDA-MB-453) cells per well and allowed to attach overnight. Cells were then preincubated for 5 h in the presence or absence of 1 mM BSO. […] After 3 h of incubation at 37° C., the amount of formazan dye was quantified by measuring the optical density at 450 nm with a scanning multiwell spectrophotometer (PerkinElmer).
Data set [2] relates to metastatic triple negative breast cancer. Description: Phase 2 and Phase 3 mTNBC trials, 15-gene expression signature analysis (PFS, OS, ORR). Type of data set: in vivo, human. The text has this:
Formalin-fixed, paraffin-embedded (FFPE) archival samples from biopsy or surgery at original diagnosis of breast cancer were profiled on the exon-based Affymetrix Hugene1.0ST microarrays using an RNA extraction protocol adapted to the short fragment lengths resulting from RNA degradation in FFPE samples. It was considered that a corpus of n=210 patients for whom clinical outcome data was available in the form of PFS time and associated censoring statuses.
The raw gene expression data from profiling of an initial n=240 FFPE preserved samples, in the form of individual Affymetrix CEL files, was processed using […] estimation. Quality control based on average array brightness excluded 30 outlier scans, and the n=210 remaining profiles were then normalized to each other using quantile normalization. Affymetrix probesets were mapped to genes, in a manner where multiple probesets mapping into the same gene were resolved by assigning the highest intensity to the corresponding gene, this procedure reducing the set of 33,297 probe sets to 20,756 mapped genes. The data was then log 2-transformed, and standardized by mean-subtraction and division by the standard deviation across all 210 samples, for each gene separately. Finally, the data matrix was subsetted to the intersection of the oxidative response set of 102 genes with the set of genes represented on the Hugene1.0ST arrays, resulting in profiles for p=82 genes across all n=210 samples.
A multivariate Cox model using supervised principal components was used to model progression free survival times regressed on gene expression data. […]
In Eq.(1) the variables: x1, l=1, . . . , K, denote projections onto the first K principal components of the data matrix of gene expression vectors, after preliminary reduction to a subset of mtop genes out of the original set of 82, where mtop is a variable parameter, 1≤mtop≤82. For a given mtop, the subset is determined by univariate feature selection (generating a Cox model for each gene independently and selecting the mtop genes with the smallest interaction-term P-values). […]

The target of the next data set is T1, TrxR2 (Homo sapiens, UniProt Q9NNW7).
T1 construct: TrxR1 and TrxR2 were immunoprecipitated from octylglucoside cell extracts (12 mg proteins); endogenous in cells; host or cells: HCT116 (BSO-pretreated)
Description: Mass spectrometry of immunoprecipitated TrxR2 modified by Iniparib in HCT116 cells. Type of data set: cell-based. As to the method: After separation by SDS-PAGE under reducing conditions and PageBlue® protein staining (Thermo scientific), bands of interest were excised, reduced with DTT, alkylated with iodoacetamide and in-gel digested with trypsin (Promega), according to the method of Shevchenko et al. (24). Peptides were extracted with 50 mM ammonium bicarbonate and 50% acetonitrile in 0.2% formic acid and analyzed by Nano LC-MS/MS after partial evaporation in a speed-vac concentrator. LC-MS/MS experiments were performed on an NanoAcquity UPLC (Waters) coupled to a hybrid LTQ Orbitrap Velos mass spectrometer (Thermo Fisher Scientific) equipped with a nanoelectrospray source. Tryptic digests were loaded onto a nanoAcquity UPLC Trap column (Symmetry C18, 5 μm, 180 μm×20 mm, Waters) and washed with 0.2% FA at 20 μl/min for 5 min. Peptides were then eluted on a C18 reverse-phase nanoAcquity column (BEH130 C18, 1.7 μm, 75 μm×250 mm, Waters) with a linear gradient of 7-30% solvent B (H2O/CH3CN/HCOOH, 10:90:0.2, by vol.) for 85 min, 30-90% solvent B for 10 min, and 90% solvent B for 5 min, at a flow rate of 250 nL/min. The mass spectrometer was operated in the data-dependent mode to automatically switch between MS and MS/MS acquisition. Survey full scan MS spectra (m/z 300-1,600) were acquired in the Orbitrap with a resolution of 60,000 at m/z 400. The AGC was set to 1×10^6 with a maximum injection time of 100 ms. The most intense ions (up to 20) were then isolated for fragmentation in the LTQ linear ion trap with normalized collision energy of 28% at the default activation q of 0.25 with an AGC of 5×10^3 and a maximum injection time of 200 ms. The dynamic exclusion time window was set to 80 s. […] The exact parent mass is the 12C isotope ion mass of the most intense isotopic pattern detected on the high resolution Orbitrap MS parallel scan and included in the MS/MS selection window. […]

Data set [3] relates to HCT116 cells. As to the kind of experiment: Fluorescence microscopy, subcellular localization of Iniparib-biotin targets. Conditions: HCT116, 30 min after adding Iniparib-biotin. Type of data set: cell-based, human. As to the method: HCT116 cells were platted on polylysine D coated thin glass bottom microscope chambers (Ibidi). […] For subcellular localization experiments mitochondria were stained with 100 nM Mitotracker Red CMX (Molecular probes) added for 10 min. This stain was performed before fixation (Paraformaldehyde 3.7% in PBS pH 7.4). Biotin was developed, after Triton X100 (0.3% in PBS, 15 min) permeabilization and saturation (1% BSA+1% gelatin in PBS: saturation buffer), with Alexa-488 streptavidin (Molecular Probes) conjugate (1 μg/ml in saturation buffer). Nuclei were stained with Hoechst (Molecular Probes) and samples mounted in anti-fading solution (Ibidi).
Cells were imaged with a PLAN NeoFluar 40× (NA 1.3) or 100×, (NA 1.46) oil objectives on a LSM510 (Zeiss) confocal microscope. Laser lines, filters and dichroic mirrors were selected for maximal separation of the green (Ex./Em. 488/530 nm) and the red fluorescence (Ex./Em. 543/LP 585 nm). Nuclei were observed (Ex./Em. 405/460 nm). For co-localization stacks of images separated by 400 nm along z-axis were acquired. Post-capture processing was done using LSM510 software, and Photoshop (Adobe) was used to make linear adjustments to brightness and contrast.

The text below walks through data of patent US20200113852A1, “METHODS OF PATIENT SELECTION AND TREATING TRXR- OR PRDX-OVEREXPRESSED CANCERS” (TRIACT THERAPEUTICS, INC., priority 2017, published 2020).

Read-outs that look alike come from different tables or passages of the source.

T1 sequence (Q9NNW7 37-524): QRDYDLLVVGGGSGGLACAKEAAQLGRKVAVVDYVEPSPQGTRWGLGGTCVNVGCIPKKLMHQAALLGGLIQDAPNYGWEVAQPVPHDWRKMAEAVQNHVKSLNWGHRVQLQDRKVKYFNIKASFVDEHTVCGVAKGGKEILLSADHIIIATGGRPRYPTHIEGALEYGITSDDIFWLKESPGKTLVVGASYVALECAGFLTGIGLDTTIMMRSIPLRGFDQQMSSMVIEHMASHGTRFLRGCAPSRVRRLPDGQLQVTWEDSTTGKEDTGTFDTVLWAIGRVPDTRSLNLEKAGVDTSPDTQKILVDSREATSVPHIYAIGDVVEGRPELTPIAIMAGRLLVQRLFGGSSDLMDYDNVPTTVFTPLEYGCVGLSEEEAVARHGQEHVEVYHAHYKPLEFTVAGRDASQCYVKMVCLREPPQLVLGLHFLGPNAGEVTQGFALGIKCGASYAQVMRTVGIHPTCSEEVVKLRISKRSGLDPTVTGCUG

Regarding `NC(=O)c1ccc(I)c([N+](=O)[O-])c1` [Iniparib, 4-iodo-3-nitrobenzamide], the cytotoxicity result was “marginal cytotoxicity” in the data set with HCT116 cells [1] (after 24 h, concentrations up to 100 μM) and “no cytotoxicity was detected” with HCT116 cells [1] (up to 100 μM of Iniparib). The IC50 was greater than 100 µM in the data set on HCT116 cells [1] (HCT-116, 24 h, read-out: IC50 (cytotoxicity), HCT116 cells not depleted of GSH, transitory or 24 h exposure); 8.2 µM with HCT116 cells [1] (HCT-116, read-out: IC50 (cytotoxicity), HCT116, GSH depletion (Example 2)); 8.4 ± 0.5 µM with HCT116 cells [1] (HCT-116, read-out: IC50 (cytotoxicity), HCT116 after GSH depletion with BSO (Example 1)). Moreover, in data set [2] (biomarker-selected (sensitive) population n=53), the median progression-free survival worked out at 5.9 months. The “objective response rate (responders)” value turned out to be 34% in data set [2] (resistant group) and 48% in data set [2] (sensitive group n=53). Also, the “TrxR2 with one Iniparib adduct on Sec residue” value is listed as 5% on TrxR2 (1 h) and 12% at TrxR2 (4 h). The “additional TrxR2 peptide modified on a cysteine residue” value at TrxR2 (4 h) was less than 1%.
`O=C(CCCC[C@@H]1SC[C@@H]2NC(=O)N[C@@H]21)NCCNC(=O)c1ccc(I)c([N+](=O)[O-])c1` [Iniparib-biotin, 4-iodo-3-nitro-N-(2-(5-((3 aS,4S,6aR)-2-oxohexahydro-1H-thieno[3,4-d]imidazol-4-yl)pentanamido)ethyl)benzamide]: the “subcellular localization of labeled proteins” value in the data set with HCT116 cells [3] was “cellular proteins were labeled in the cytosol as well as in the nucleus and cytoplasmic structures”.

A word on the IC50: it is the concentration that gives 50% inhibition.
